Experimental data as given in ChEMBL document CHEMBL1250518, “Nonsteroidal dissociated glucocorticoid agonists containing azaindoles as steroid A-ring mimetics” (J Med Chem, 2010).
The source made the active and inactive calls. The rule behind the calls is not given here.

Legend:
[1] = AUC (infinity) in Sprague-Dawley rat at 30 mg/kg, po; format: ADME, organism-based, Plasma; set-up: time infinity, dose 30 mg/kg, route oral; conditions: Sprague-Dawley, plasma
[2] = Half life in Sprague-Dawley rat at 2 mg/kg, iv; format: ADME, organism-based; set-up: dose 2 mg/kg, route intravenous; conditions: in vivo
[3] = molecular target: T1, Mineralocorticoid receptor (Homo sapiens, UniProt P08235); assay: Binding affinity to mineralocorticoid receptor expressed in baculovirus-infected insect cells using tetramethylrhodamine labeled Dexamethasone by fluorescence polarization microplate assay
T1 sequence (P08235 whole entry): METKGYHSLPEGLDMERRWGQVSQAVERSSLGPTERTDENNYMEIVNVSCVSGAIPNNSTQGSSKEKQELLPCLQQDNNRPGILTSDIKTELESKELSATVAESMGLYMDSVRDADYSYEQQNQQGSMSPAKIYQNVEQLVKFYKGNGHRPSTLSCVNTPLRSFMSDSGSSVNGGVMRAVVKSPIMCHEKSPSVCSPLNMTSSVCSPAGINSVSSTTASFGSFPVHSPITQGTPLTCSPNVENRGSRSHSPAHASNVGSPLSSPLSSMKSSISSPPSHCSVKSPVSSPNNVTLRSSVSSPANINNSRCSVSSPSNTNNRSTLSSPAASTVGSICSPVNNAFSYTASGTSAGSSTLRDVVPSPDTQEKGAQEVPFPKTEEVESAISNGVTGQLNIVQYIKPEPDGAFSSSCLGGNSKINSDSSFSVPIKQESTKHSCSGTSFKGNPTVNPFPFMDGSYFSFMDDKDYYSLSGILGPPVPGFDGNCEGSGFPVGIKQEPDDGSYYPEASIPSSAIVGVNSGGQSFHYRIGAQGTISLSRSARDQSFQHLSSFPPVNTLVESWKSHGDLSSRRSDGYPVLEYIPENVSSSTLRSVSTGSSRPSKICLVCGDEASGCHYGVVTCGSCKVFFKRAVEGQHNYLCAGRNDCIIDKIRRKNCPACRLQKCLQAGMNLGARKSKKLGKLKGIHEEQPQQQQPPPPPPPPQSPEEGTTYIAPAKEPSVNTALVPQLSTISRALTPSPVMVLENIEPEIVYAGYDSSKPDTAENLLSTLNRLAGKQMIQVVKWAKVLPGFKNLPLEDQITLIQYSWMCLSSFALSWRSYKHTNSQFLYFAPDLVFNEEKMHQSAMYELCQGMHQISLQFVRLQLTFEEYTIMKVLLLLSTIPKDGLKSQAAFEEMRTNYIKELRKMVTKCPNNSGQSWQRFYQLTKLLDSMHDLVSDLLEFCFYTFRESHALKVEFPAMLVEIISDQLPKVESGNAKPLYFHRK

Glucocorticoid receptor [4] = molecular target: T2, Glucocorticoid receptor (Homo sapiens, UniProt P04150); assay: Transrepression activity at glucocorticoid receptor in HFF assessed as inhibition of IL-1-induced IL-6 production after 18 to 24 hrs by ELISA; format: cell-based
T2 sequence (P04150 whole entry): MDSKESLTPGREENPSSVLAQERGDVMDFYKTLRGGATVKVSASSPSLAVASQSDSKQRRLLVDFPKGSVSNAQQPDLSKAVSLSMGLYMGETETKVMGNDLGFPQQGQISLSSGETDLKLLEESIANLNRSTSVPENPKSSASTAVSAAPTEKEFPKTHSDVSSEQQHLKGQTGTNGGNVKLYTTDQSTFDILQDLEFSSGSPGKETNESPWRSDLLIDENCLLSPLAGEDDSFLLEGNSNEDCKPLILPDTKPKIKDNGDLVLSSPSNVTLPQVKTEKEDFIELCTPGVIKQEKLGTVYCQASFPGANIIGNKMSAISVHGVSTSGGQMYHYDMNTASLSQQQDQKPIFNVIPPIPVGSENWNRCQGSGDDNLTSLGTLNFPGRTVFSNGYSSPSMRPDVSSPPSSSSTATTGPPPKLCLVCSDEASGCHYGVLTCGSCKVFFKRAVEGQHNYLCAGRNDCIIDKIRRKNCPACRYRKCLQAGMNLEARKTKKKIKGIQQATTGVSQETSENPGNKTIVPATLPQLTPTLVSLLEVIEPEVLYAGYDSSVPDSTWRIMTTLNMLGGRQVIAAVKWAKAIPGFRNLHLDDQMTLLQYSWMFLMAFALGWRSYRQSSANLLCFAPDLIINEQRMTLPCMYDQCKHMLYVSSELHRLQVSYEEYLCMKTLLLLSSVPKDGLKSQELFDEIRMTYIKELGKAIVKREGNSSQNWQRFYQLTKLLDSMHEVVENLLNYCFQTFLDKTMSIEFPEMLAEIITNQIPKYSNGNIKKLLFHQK

Glucocorticoid receptor [5] = molecular target: T2, Glucocorticoid receptor; assay: Transactivation activity at glucocorticoid receptor in HFF assessed as induction of aromatase activity after 18 to 24 hrs by ELISA; format: cell-based
Mus musculus [6] = assay: Antiinflammatory effect in collagen and Freund's complete adjuvant-induced B10.RIII mouse arthritis model assessed as inhibition of disease progression at 100 mg/kg, po qd for 5 weeks; format: functional, organism-based; set-up: dose 100 mg/kg
Glucocorticoid receptor [7] = molecular target: T2, Glucocorticoid receptor; assay: Transactivation activity at glucocorticoid receptor in human HeLa cells transfected with luciferase gene linked to MMTV promoter by luciferase assay; format: cell-based
Glucocorticoid receptor [8] = molecular target: T2, Glucocorticoid receptor; assay: Binding affinity to glucocorticoid receptor expressed in baculovirus-infected insect cells using tetramethylrhodamine labeled Dexamethasone by fluorescence polarization microplate assay
Mus musculus [9] = assay: Toxicity in B10.RIII mouse assessed as increase of body fat content at 100 mg/kg, po qd for 5 weeks; format: organism-based; set-up: dose 100 mg/kg, route oral; conditions: in vivo, 840 h
[10] = Oral bioavailability in Sprague-Dawley rat at 30 mg/kg; format: ADME, organism-based; conditions: Sprague-Dawley, in vivo
[11] = Volume of distribution at steady state in Sprague-Dawley rat at 2 mg/kg, iv; format: ADME, organism-based; set-up: dose 2 mg/kg, route intravenous; conditions: in vivo, read-out: Vdss
Mus musculus [12] = assay: Toxicity in B10.RIII mouse assessed as increase of serum insulin level at 100 mg/kg, po qd for 5 weeks; format: organism-based; set-up: dose 100 mg/kg, route oral; conditions: in vivo, 840 h
Mus musculus [13] = assay: Antiinflammatory activity in po dosed BALB/c mouse assessed as reduction of LPS-induced plasma TNFalpha level administered 1 hr before LPS challenge by ELISA; format: functional
[14] = Clearance in Sprague-Dawley rat at 2 mg/kg, iv; format: ADME, organism-based; set-up: dose 2 mg/kg, route intravenous; conditions: in vivo
[15] = Cmax in Sprague-Dawley rat at 30 mg/kg, po; format: ADME, organism-based; set-up: dose 30 mg/kg, route oral; conditions: in vivo
Mus musculus [16] = assay: Antiinflammatory effect in collagen and Freund's complete adjuvant-induced B10.RIII mouse arthritis model assessed as inhibition of disease progression administered as po qd for 5 weeks; format: functional; conditions: 840 h
Progesterone receptor = molecular target: T3, Progesterone receptor (Homo sapiens, UniProt P06401); assay: Binding affinity to progesterone receptor expressed in baculovirus-infected insect cells using tetramethylrhodamine labeled RU-486 by fluorescence polarization microplate assay
T3 sequence (P06401 whole entry): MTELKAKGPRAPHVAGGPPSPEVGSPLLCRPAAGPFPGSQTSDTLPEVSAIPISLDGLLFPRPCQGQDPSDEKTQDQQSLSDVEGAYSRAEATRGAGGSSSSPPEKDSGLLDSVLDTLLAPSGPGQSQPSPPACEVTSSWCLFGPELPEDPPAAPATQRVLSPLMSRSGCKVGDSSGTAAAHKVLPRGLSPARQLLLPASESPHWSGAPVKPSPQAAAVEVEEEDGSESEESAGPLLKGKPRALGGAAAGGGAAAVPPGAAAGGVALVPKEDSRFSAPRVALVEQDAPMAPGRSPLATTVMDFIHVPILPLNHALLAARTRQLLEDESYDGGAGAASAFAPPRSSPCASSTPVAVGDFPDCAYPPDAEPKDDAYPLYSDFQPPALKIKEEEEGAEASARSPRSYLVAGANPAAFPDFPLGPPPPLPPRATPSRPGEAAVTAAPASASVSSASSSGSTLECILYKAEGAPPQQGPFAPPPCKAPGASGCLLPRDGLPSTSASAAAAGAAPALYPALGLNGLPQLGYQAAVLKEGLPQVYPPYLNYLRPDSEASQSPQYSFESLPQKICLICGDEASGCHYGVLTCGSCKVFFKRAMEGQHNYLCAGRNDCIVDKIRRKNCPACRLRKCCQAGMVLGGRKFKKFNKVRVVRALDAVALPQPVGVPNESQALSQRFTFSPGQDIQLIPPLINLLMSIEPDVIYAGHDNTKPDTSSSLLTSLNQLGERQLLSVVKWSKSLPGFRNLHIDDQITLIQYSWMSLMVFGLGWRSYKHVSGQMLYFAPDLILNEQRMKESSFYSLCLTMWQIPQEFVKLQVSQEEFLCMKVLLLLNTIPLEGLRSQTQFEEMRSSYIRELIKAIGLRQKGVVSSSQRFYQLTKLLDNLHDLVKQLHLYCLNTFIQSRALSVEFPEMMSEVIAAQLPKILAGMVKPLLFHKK

Mus musculus [17] = assay: Antiinflammatory effect in collagen and Freund's complete adjuvant-induced B10.RIII mouse arthritis model assessed as inhibition of disease progression at 30 mg/kg, po qd for 5 weeks; format: functional; conditions: 840 h
Mus musculus [18] = assay: Toxicity in B10.RIII mouse assessed as increase of body fat content at 30 mg/kg, po qd for 5 weeks; format: organism-based; set-up: dose 30 mg/kg, route oral; conditions: in vivo, 840 h
Mus musculus [19] = assay: Toxicity in collagen and Freund's complete adjuvant-induced B10.RIII mouse arthritis model assessed as increase of serum insulin level at 30 mg/kg, po qd for 5 weeks; format: organism-based; set-up: dose 30 mg/kg, route oral; conditions: in vivo, 840 h
Mus musculus [20] = assay: Toxicity in B10.RIII mouse assessed as increase of serum insulin level at 30 mg/kg, po qd for 5 weeks; format: organism-based; set-up: dose 30 mg/kg, route oral; conditions: in vivo, 840 h
Mus musculus [21] = assay: Toxicity in B10.RIII mouse assessed as increase of triglyceride level at 30 mg/kg, po qd for 5 weeks; format: organism-based; set-up: dose 30 mg/kg, route oral; conditions: in vivo, 840 h
Mus musculus [22] = assay: Toxicity in collagen and Freund's complete adjuvant-induced B10.RIII mouse arthritis model assessed as increase of free fatty acids level at 30 mg/kg, po qd for 5 weeks; format: organism-based; set-up: dose 30 mg/kg, route oral; conditions: in vivo, 840 h
Mus musculus [23] = assay: Toxicity in collagen and Freund's complete adjuvant-induced B10.RIII mouse arthritis model assessed as increase of triglyceride level at 30 mg/kg, po qd for 5 weeks; format: organism-based; set-up: dose 30 mg/kg, route oral; conditions: in vivo, 840 h
Mus musculus [24] = assay: Toxicity in collagen and Freund's complete adjuvant-induced B10.RIII mouse arthritis model assessed as increase of body fat content at 30 mg/kg, po qd for 5 weeks; format: organism-based; set-up: dose 30 mg/kg, route oral; conditions: in vivo, 840 h
[25] = Clearance in Sprague-Dawley rat at 5 mg/kg, iv; format: ADME, organism-based; set-up: dose 5 mg/kg, route intravenous; conditions: in vivo
[26] = Half life in Sprague-Dawley rat at 5 mg/kg, iv; format: ADME, organism-based; set-up: dose 5 mg/kg, route intravenous; conditions: in vivo
[27] = Tmax in Sprague-Dawley rat at 30 mg/kg, po; format: ADME, organism-based; set-up: dose 30 mg/kg, route oral; conditions: in vivo
[28] = Volume of distribution at steady state in Sprague-Dawley rat at 5 mg/kg, iv; format: ADME, organism-based; set-up: dose 5 mg/kg, route intravenous; conditions: in vivo, read-out: Vdss

Compound: COc1ccc(-c2cncnc2)cc1C(C)(C)C[C@@](O)(Cc1cc2ccncc2[nH]1)C(F)(F)F
- AUC(0-inf) [1]: 5930 ng·h/mL
- half-life [2]: 1 h
- IC50 [3]: > 2000 nM
- IC50 (Glucocorticoid receptor [4]): 20 nM
- EC50 (Glucocorticoid receptor [5]): > 2000 nM
- Activity (Mus musculus [6]): Active
- IC50 (Glucocorticoid receptor [7]): > 2000 nM
- IC50 (Glucocorticoid receptor [8]): 8 nM
- Activity (Mus musculus [9]): Non-toxic
- bioavailability [10]: 97%
- Vd [11]: 6.6 L/kg
- Activity (Mus musculus [12]): Non-toxic
- ED50 (Mus musculus [13]): < 1 mg/kg
- clearance [14]: 83 mL/min/kg
- Cmax [15]: 422 ng/mL
- ED50 (Mus musculus [16]): 30 mg/kg
- IC50 (Progesterone receptor): > 2000 nM

Compound: C[C@]12C=CC(=O)C=C1CC[C@@H]1[C@@H]2[C@@H](O)C[C@@]2(C)[C@H]1CC[C@]2(O)C(=O)CO [PREDNISOLONE]
- inhibition in vivo at 30 mg/kg (Mus musculus [17]): 77%
- IC50 [3]: 44 nM
- Activity (Mus musculus [18]): Toxic
- Activity (Mus musculus [19]): Non-toxic
- Activity (Mus musculus [20]): Toxic
- Activity (Mus musculus [21]): Toxic
- Activity (Mus musculus [22]): Non-toxic
- Activity (Mus musculus [23]): Toxic
- Activity (Mus musculus [24]): Non-toxic
- ED50 (Mus musculus [16]): 10 mg/kg

Compound: COc1ccc(F)cc1C(C)(C)C[C@@](O)(Cc1cc2ccncc2[nH]1)C(F)(F)F
- AUC(0-inf) [1]: 1740 ng·h/mL
- IC50 [3]: 380 nM
- IC50 (Glucocorticoid receptor [4]): 6 nM
- EC50 (Glucocorticoid receptor [5]): 10 nM
- IC50 (Glucocorticoid receptor [7]): 20 nM
- IC50 (Glucocorticoid receptor [8]): 1.4 nM
- bioavailability [10]: 21%
- clearance [25]: 61 mL/min/kg
- Cmax [15]: 427 ng/mL
- half-life [26]: 1.7 h
- IC50 (Progesterone receptor): 1150 nM
- Tmax [27]: 2 h
- Vd [28]: 8.7 L/kg
